Reference: US4703036A, “Peptide-aldehydes, process for the preparation thereof and pharmaceutical compositions containing the same” (Richter Gedeon Vegyeszeti Gyar RT, priority 1984, dated 1987)
Non-standard residues stand in square brackets, D forms with d. Residues, ends and D or L forms follow the SMILES beside them. dNMeaIle = CC[C@H](C)[C@@H](NC)C(=O)O

What was measured:
[1] = biological target: T1, US Standard Human Thrombin (Homo sapiens, UniProt P00734); test: Antithrombin activity: clotting time in the thrombin-fibrinogen system; assay type: biochemical; conditions: for Initial activity I80 (zero day): peptide concentration in the reaction mixture inducing a fivefold prolongation of clotting time compared to the control (15 s)
T1 construct: US Standard Human Thrombin; purchased NIH, Bethesda, Md., USA
Method: Antithrombin activities were assayed in a system containing the following components:
(§1) 0.2 ml 0.5 percent bovine fibrinogen in a 0.9 percent solution of sodium chloride,
0.1 ml tris(hydroxymethyl)-amino-methane-hydrochloride-hydrochloric acid buffer (pH=7.2) containing the peptide solution, and
0.1 ml US Standard Human Thrombin (NIH, Bethesda, Md., USA), 10 unit/ml solution.
The clotting time of the peptide-free system is 15 s, measured in the "Schnither-Gross-Coagulometer". The initial activity of the tripeptide-aldehyde sulfates was arbitrarily set up as the mole concentration inducing the fivefold prolongation of clotting time in the system compared to the control (I80 value). The activity of the peptides in the solutions, assayed on the 1st, 3rd and 5th day, was expressed as a percentage of the initial activity (zero day).

[2] = biological target: T1, US Standard Human Thrombin; test: Change in the antithrombin activity of aqueous solutions of tripeptide-aldehyde sulfates on storage; assay type: physicochemical; conditions: aqueous solution 10 mg/ml; for loss of initial antithrombin activity during the observation period: pH 6.0, 40° C., 5 days; for Activity (%) Day 1 / Activity (%) Day 2 / Activity (%) Day 3: percentage of initial activity, pH = 6.0, stored at 40° C.
Method: The transformations proceeding in the solutions were monitored by chromatography and by measuring antithrombin activity. Antithrombin activities were assayed in a system containing the following components: […] 0.1 ml US Standard Human Thrombin (NIH, Bethesda, Md., USA), 10 unit/ml solution. The clotting time of the peptide-free system is 15 s, measured in the "[…]-Gross-Coagulometer". The initial activity of the tripeptide-aldehyde sulfates was arbitrarily set up as the mole concentration inducing the fivefold prolongation of clotting time in the system compared to the control ([…] value).

[3] = Conversion to the tricyclic compound in aqueous solution, monitored by chromatography; assay type: physicochemical; conditions: for irreversible conversion to the tricyclic compound: aqueous solution 10 mg/ml, pH=6.0, 40° C., 5 days, thin-layer chromatography
Method: The structure of this compound [1,2,4,5,6,6a-hexahydro-1-benzyl-2-oxo-8-(4'-guanidino)-butyl-pyrrolo[1,2- a]imidazolo[2,1-c]pyrazine] was confirmed by mass spectrometry and NMR spectroscopy. […] 817], they are less suitable for anticoagulant therapy.
During stability testing aqueous solutions of D-phenylalanyl-L-prolyl-L-arginine-aldehyde sulfate as well as of the corresponding N-alkyl derivatives with a concentration of 10 mg/ml (pH=6.0) were stored at 40° C. for 5 days. The transformations proceeding in the solutions were monitored by chromatography and by measuring antithrombin activity.

[4] = biological target: T2, plasmin (Homo sapiens, UniProt P00747); test: Effect on the plasmin-fibrin reaction: lysis time of fibrin clot; assay type: biochemical; parameters: key: **: No measurable lysis time due to clot of rather loose structure; conditions: peptide-free system 10 minutes
T2 construct: 0.1 U plasmin dissolved in buffer solution (KABI, Stockholm, Sweden); purchased KABI, Stockholm, Sweden
Method: as §1
0.1 ml tris(hydroxymethyl)-amino-methane hydrochloride-hydrochloric acid buffer (pH=7.2), containing the peptide,
0.1 ml 0.1 U plasmin dissolved in buffer solution (KABI, Stockholm, Sweden), and
0.1 ml US Standard Human Thrombin (NIH, Bethesda, Md., USA) 10 U/ml solution.
The lysis time of the fibrin gel formed in the peptide-free system is 10 minutes. D-Phenylalanyl-L-prolyl-L-arginine-aldehyde sulfate and the above-mentioned t-butyloxycarbonyl-D-phenylalanyl-L-prolyl-L-arginine-aldehyde hemisulfate were used as reference substances.

[5] = tested on: male New Zealand rabbits; test: In vivo anticoagulant effect: whole blood clotting time and plasma thrombin time; parameters: species or system rabbit; conditions: lowest dose required to attain therapeutic effect; for Lowest effective dose iv: intravenous infusion for 3 hours; for Lowest effective dose po: oral administration
Method: The peptides, dissolved in isotonic saline solution, were administered orally or intravenously to male New Zealand rabbits weighing 2 to 3 kg. At intravenous application infusions of 0.5 to 2.0 mg/kg/h were given at a rate of 6 ml/h for 3 hours. At oral administration 20 to 30 mg/kg doses of the peptides were given in volumes of 2 ml. After application blood samples were taken in 30 minute periods from the ear vein of the rabbits and the clotting time of whole blood was assayed in a Thromboelastograph [H. Harter: Zeitschrift fur klinische Medizin 153, 423 (1955)], simultaneously the plasma thrombin time was measured, too [R. T. S. Jim: J. Lab. Clin. Med. 50, 45 (1957)]. The lowest doses required to attain therapeutic effect (M. Verstraete and R. Verwilghen in Drug Treatment, 2nd ed., Ed.: G. S. Avery, Churchill Livingstone, Edinburgh-London, 1980, p. 919) were presented in Table 3, D-phenylalanyl-L-prolyl-L-arginine-aldehyde sulfate served as reference substance.

[6] = biological target: T1, US Standard Human Thrombin; conditions: cool solution (5° C.), prolonged period; Belgian patent specification No. 891,708; cited from earlier work
[7] = Conversion to the tricyclic compound in aqueous solution, monitored by chromatography; assay type: physicochemical
[8] = biological target: T1, US Standard Human Thrombin; conditions: literature statement; cited from earlier work
[9] = biological target: T2, plasmin; conditions: literature statement; cited from earlier work

T2 sequence (P00747 581-810 limits assumed): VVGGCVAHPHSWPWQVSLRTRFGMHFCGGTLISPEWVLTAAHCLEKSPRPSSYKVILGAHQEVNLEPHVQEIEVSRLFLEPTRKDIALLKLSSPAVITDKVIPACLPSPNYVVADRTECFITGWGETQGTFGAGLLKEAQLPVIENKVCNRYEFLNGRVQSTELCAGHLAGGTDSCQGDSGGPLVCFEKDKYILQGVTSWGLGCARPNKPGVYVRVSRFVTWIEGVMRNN
T2 sequence (P00747 97-580 partner limits assumed): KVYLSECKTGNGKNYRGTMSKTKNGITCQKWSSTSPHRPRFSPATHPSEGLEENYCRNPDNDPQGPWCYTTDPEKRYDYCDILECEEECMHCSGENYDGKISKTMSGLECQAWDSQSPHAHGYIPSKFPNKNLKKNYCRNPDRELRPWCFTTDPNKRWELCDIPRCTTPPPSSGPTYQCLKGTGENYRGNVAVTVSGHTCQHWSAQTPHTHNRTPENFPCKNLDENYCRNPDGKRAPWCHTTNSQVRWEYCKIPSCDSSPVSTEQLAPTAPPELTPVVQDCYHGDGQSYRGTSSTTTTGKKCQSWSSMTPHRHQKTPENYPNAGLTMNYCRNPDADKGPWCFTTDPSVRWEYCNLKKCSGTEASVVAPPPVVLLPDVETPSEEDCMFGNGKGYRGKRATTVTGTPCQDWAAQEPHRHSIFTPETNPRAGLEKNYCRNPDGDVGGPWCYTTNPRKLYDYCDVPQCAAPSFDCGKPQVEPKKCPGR

Compound: 1,2,4,5,6,6a-hexahydro-1-benzyl-2-oxo-8-(4'-guanidino)-butyl-pyrrolo[1,2- a]imidazolo[2,1-c]pyrazine [tricyclic compound]
- enzyme inhibitory activity ([1]; conversion product, method not described): devoid of enzyme inhibitory activity

Compound: N=C(N)NCCC[C@@H](C=O)NC(=O)[C@@H]1CCCN1C(=O)[C@H](N)Cc1ccccc1.O=S(=O)(O)O [D-Phenylalanyl-L-prolyl-L-arginine-aldehyde sulfate, reference compound]
- Initial activity I80 (zero day) [1]: 0.25 µM
- loss of initial antithrombin activity during the observation period [2]: more than 50%
- Activity (%) Day 1 [2]: 100%
- Activity (%) Day 2 [2]: 50%
- Activity (%) Day 3 [2]: 40%
- irreversible conversion to the tricyclic compound [3]: gradually reduced
- Lysis time of fibrin clot ([4]; peptide content 0.18 μM): 10 min
- Lysis time of fibrin clot ([4]; peptide content 0.36 μM): **
- Lysis time of fibrin clot ([4]; peptide content 0.72 μM): no clot formed
- Lowest effective dose iv [5]: 0.5 mg/kg/h
- Lowest effective dose po [5]: 20 mg/kg
- stability: retention of initial activity in cool solution [6]: retaining its initial activity
- time to practically complete transformation into the tricyclic compound at 37° to 40° C. ([7]; 37° to 40° C.): 10 to 14 days
- transformation into the tricyclic compound at 80° to 100° C. ([7]; 80° to 100° C.): within hours

Compound: CC(=O)O.N=C(N)NCCC[C@@H](C=O)NC(=O)[C@@H]1CCCN1C(=O)[C@H](N)Cc1ccccc1 [D-phenylalanyl-L-prolyl-L-arginine-aldehyde acetate, reference compound]
- transformation into the corresponding tricyclic compound ([3]; conditions not stated): especially highly susceptible

Compound: CN(C)[C@H](Cc1ccccc1)C(=O)N1CCC[C@H]1C(=O)N[C@H](C=O)CCCNC(=N)N.O=S(=O)(O)O [N,N-Dimethyl-D-phenylalanyl-L-prolyl-L-arginine-aldehyde sulfate]
- irreversible conversion to the tricyclic compound [3]: no such conversion was detectable
- Lowest effective dose po [5]: 30 mg/kg

Compound: CCN[C@H](Cc1ccccc1)C(=O)N1CCC[C@H]1C(=O)N[C@H](C=O)CCCNC(=N)N.O=S(=O)(O)O [N-Ethyl-D-phenylalanyl-L-prolyl-L-arginine-aldehyde sulfate]
- Initial activity I80 (zero day) [1]: 0.21 µM
- loss of initial antithrombin activity during the observation period [2]: 15 to 20%
- Activity (%) Day 1 [2]: 100%
- Activity (%) Day 2 [2]: 100%
- Activity (%) Day 3 [2]: 85%
- irreversible conversion to the tricyclic compound ([3]; listed as N-ethyl derivative, sulfate): no such conversion was detectable
- irreversible conversion to the tricyclic compound ([3]; sulfate): fail to be irreversibly converted
- Lowest effective dose iv [5]: 0.5 mg/kg/h
- Lowest effective dose po [5]: 20 mg/kg

Compound: CC(C)CN[C@H](Cc1ccccc1)C(=O)N1CCC[C@H]1C(=O)N[C@H](C=O)CCCNC(=N)N.O=S(=O)(O)O [N-Isobutyl-D-phenylalanyl-L-prolyl-L-arginine-aldehyde sulfate]
- Initial activity I80 (zero day) [1]: 0.31 µM
- loss of initial antithrombin activity during the observation period [2]: 15 to 20%
- Activity (%) Day 1 [2]: 100%
- Activity (%) Day 2 [2]: 85%
- Activity (%) Day 3 [2]: 80%
- irreversible conversion to the tricyclic compound ([3]; listed as N-isobutyl derivative, sulfate): no such conversion was detectable
- irreversible conversion to the tricyclic compound ([3]; sulfate): fail to be irreversibly converted
- Lowest effective dose po [5]: 20 mg/kg

Compound: CC[C@H](C)[C@@H](NC)C(=O)N1CCC[C@H]1C(=O)N[C@H](C=O)CCCNC(=N)N.O=S(=O)(O)O [N-Methyl-D-alloisoleucyl-L-prolyl-L-arginine-aldehyde sulfate] (H-[dNMeaIle]-Pro-Arg-aldehyde)
- Lowest effective dose iv [5]: 1.0 mg/kg/h
- Lowest effective dose po [5]: 30 mg/kg

Compound: CN[C@H](Cc1ccccc1)C(=O)N1CCC[C@H]1C(=O)N[C@@H](C=O)CCCNC(=N)N.O=S(=O)(O)O [N-Methyl-D-phenylalanyl-L-prolyl-D-arginine-aldehyde sulfate]
- Initial activity I80 (zero day) [1]: 0.25 µM
- Activity (%) Day 1 [2]: 100%
- Activity (%) Day 2 [2]: 100%
- Activity (%) Day 3 [2]: 100%

Compound: CN[C@H](Cc1ccccc1)C(=O)N1CCC[C@H]1C(=O)N[C@H](C=O)CCCNC(=N)N.O=S(=O)(O)O [N-Methyl-D-phenylalanyl-L-prolyl-L-arginine-aldehyde sulfate]
- loss of initial antithrombin activity during the observation period [2]: retained its initial potency
- irreversible conversion to the tricyclic compound ([3]; listed as N-methyl derivative, sulfate): no such conversion was detectable
- irreversible conversion to the tricyclic compound ([3]; sulfate): fail to be irreversibly converted
- Lysis time of fibrin clot ([4]; peptide content 0.18 μM): 10 min
- Lysis time of fibrin clot ([4]; peptide content 0.36 μM): **
- Lysis time of fibrin clot ([4]; peptide content 0.72 μM): no clot formed
- Lowest effective dose iv [5]: 0.5 mg/kg/h
- Lowest effective dose po [5]: 20 mg/kg

Compound: t-butyloxycarbonyl-D-phenylalanyl-L-prolyl-L-arginine-aldehyde hemisulfate
- Lysis time of fibrin clot ([4]; peptide content 0.18 μM): 10 min
- Lysis time of fibrin clot ([4]; peptide content 0.36 μM): 20 min
- Lysis time of fibrin clot ([4]; peptide content 0.72 μM): 40 min
- inhibition of the thrombin-fibrinogen reaction [8]: inhibit
- effect on the plasmin-fibrin reaction [9]: inhibit
